Laboratory results reported in ChEMBL document CHEMBL6078664, “Abietane Diterpenoids from the Rhizomes of Kaempferia roscoeana and Their Anti-Inflammatory Activities” (J Nat Prod, 2024).

Experiments:
RAW264.7 [1] = assay: Antiinflammatory activity in LPS-induced mouse RAW264.7 cells assessed as inhibition of NO production preincubated for 1 hr followed by LPS stimulation and measured after 24 hrs by microplate reader based analysis; type: functional, cell-based
RAW264.7 [2] = assay: Cytotoxicity against mouse RAW264.7 cells incubated for 24 hrs by MTT assay; type: functional, cell-based; conditions: RAW264.7, 24 h

IC50 (RAW264.7 [1]) | Compound | IC50 (RAW264.7 [2])
4.1 µM | CO[C@@H]1O[C@]23C=C(C(C)C)CC[C@]2(O)[C@]12CCCC(C)(C)[C@@H]2CC3 | > 50 µM
20 µM | CC(C)C1=C[C@]23OC[C@@]4(CCCC(C)(C)[C@@H]4C[C@H]2O)[C@@]3(O)CC1 | > 50 µM
13.7 µM | CC(C)[C@]1(O)C=C2[C@H](O)C[C@H]3C(C)(C)CCC[C@]3(C)[C@@]2(O)CC1 | > 50 µM
4.3 µM | CC(C)C1=CC2=CC[C@H]3C(C)(C)CCC[C@]3(C=O)[C@@]2(O)CC1 | > 50 µM
3.6 µM | CC(C)[C@]1(O)C=C2CC[C@H]3C(C)(C)CCC[C@]3(C)[C@@]2(O)CC1 | > 50 µM
> 50 µM | CC(C)C1=C[C@@]23CC[C@H]4C(C)(C)CCC[C@]4([C@H](O)O2)[C@@]3(O)CC1 | > 50 µM
36.8 µM | CC(C)C1=C[C@@]23CC[C@H]4C(C)(C)CCC[C@]4(CO2)[C@@]3(O)CC1 | 44.4 µM
0.3 µM | C[C@@H]1C[C@H]2[C@@H]3CCC4=CC(=O)C=C[C@]4(C)[C@@]3(F)[C@@H](O)C[C@]2(C)[C@@]1(O)C(=O)CO [DEXAMETHASONE] | > 50 µM
